Results reported in patent publication US20240342244A1, “Isthmin Protein Therapeutics for the Treatment of Non-Alcoholic Fatty Liver Disease” (The Board of Trustees of the Leland Stanford Junior …, priority 2021, published 2024).

Columns and labels:
NAFLD mice = conditions: daily injections at 30 mg/kg; after 14 days; cited from earlier work
AML12 hepatocytes = assay: Lipogenesis assay (3H-acetate incorporation into lipids) in AML12 hepatocytes; assay type: cell-based, mouse; conditions: 50 nM insulin; 24 h
Method: Lipogenesis Assay. Primary hepatocytes or AML12 hepatocytes were washed twice with warm PBS and starved in serum-free DMEM overnight. Indicated concentrations of insulin with or without ISM1 were added at the same time. After 24 h, a mixture of 10 μM cold acetate and 2 μCi [3H]-Acetate (#NET003H005MC, PerkinElmer) was added to each well and cells were incubated for another 4 hr. Cells were washed with PBS twice and lysed using 0.1 N hydrogen chloride. Lipids were extracted by 2:1 chloroform-methanol (v/v). After centrifugation at 3000×g for 10 min, the lower phase was transferred to scintillation vials and radioactivity was measured by liquid scintillation counting.

pTyr = assay: Western blot of pTyr levels; assay type: cell-based; conditions: 100 nM; 2 minutes
Method: (§1) Western blots and molecular analyses. For western blotting, homogenized tissues or whole-cell lysates, samples were lysed in RIPA buffer containing protease inhibitor cocktail (Roche) and phosphatase inhibitor cocktail (Roche). Cell lysates were centrifuged at 14,000×g for 15 min and supernatants were prepared in 4×LDS Sample Buffer (Invitrogen) and separated by SDS-PAGE and transferred to Immobilon 0.45 μm membranes (Millipore). For Western blotting of plasma samples, 1 μl of plasma was prepared in 2× sample buffer (Invitrogen) with reducing agent, boiled, and analyzed using Western blot against indicated antibody. Protein kinase array (R&D systems ARY003B) was performed according to the manufacturers' description. All antibodies used in this paper are described in STAR methods.

[1] = system: differentiated 3T3-L1 adipocytes; assay: 2-deoxy-3H-glucose uptake in differentiated 3T3-L1 adipocytes; assay type: cell-based; conditions: 1 h
Method: (§2) Glucose uptake. Glucose uptake was performed as previously described (You et al., 2017). Briefly, 2-Deoxy-d-[2,6-3H]-glucose was purchased from PerkinElmer NEN radiochemicals. Fully differentiated adipocytes were washed with KRH buffer and starved in 0.5% BSA in KRH buffer for 4 h. Indicated concentrations of insulin or ISM1 were added at indicated time points. Cells were treated with a mixture of 500 μM 2-deoxy-D-glucose and 1.71 μCimL^−1 2-Deoxy-D-[1,2-3H (N)]-glucose for another 10 min followed by three washes using ice cold KRH buffer containing 200 mM glucose. The passive glucose uptake in the presence of 50 uM CytoB was less than 12% of the total glucose uptake. Cells were solubilized in 1% SDS and radioactivity was measured by liquid scintillation counting.

[2] = system: IGF-I-Receptor β Tyr1135/1136 or Insulin receptor Tyr1150/1151; assay: Western blot of phosphorylated insulin and IGF receptors in 3T3-F442A cells; assay type: cell-based; conditions: 100 nM; 2 minutes
Method: as §1

GLUT4 = GLUT4 translocation to the plasma membrane in primary adipocytes (immunostaining, fractionation); assay type: cell-based, mouse; conditions: 100 nM
Method: Biochemical analyses. Plasma insulin levels were measured using the Ultra-Sensitive Mouse Insulin ELISA kit (Crystal Chem Inc #90080). Plasma triglycerides were measured with Infinity triglyceride measurement kit (Thermo #TR22421) and tissue triglycerides were measured with a Triglyceride Colorimetric Assay Kit (Cayman #10010303). Lipolysis was measured in day 5 differentiated adipocytes after 4 hours of protein treatment using a glycerol release assay according to the protocol provided by the manufacturer (Abcam #ab133130). Plasma membrane protein extractions were performed according to the manufacturer's protocol (Abcam #ab65400).
Immunocytochemistry. Primary mouse preadipocytes were seeded onto collagen-coated 22 mm×22 mm coverslips and differentiated using the method above. On day 8, differentiated adipocytes were washed with PBS and starved in 0.5% BSA in KRH buffer (50 mM HEPES, 136 mM NaCl, 1.25 mM MgSO4, 1.25 mM CaCl2, 4.7 mM KCl, pH 7.4) for 3.5 h. Cells were treated with insulin or ISM1 for 30 min, followed by three washes with cold PBS. Cells were fixed with 4% PFA in PBS for 15 min at room temperature. After blocking with 2% BSA, 5% goat serum, 0.2% Triton-X in PBS for 1 hr, cells were incubated with diluted primary antibody at 4° C. overnight. The next day, cells were washed and incubated with secondary antibody on ice for 1 hr. Cells were imaged using confocal microscope (Leica TCS SP8). Hoechst (#33342, thermo fisher) was used as counterstain.

human SGBS adipocytes = assay: 2-deoxy-3H-glucose uptake in human SGBS adipocytes; assay type: cell-based; conditions: doses ranging from 10 nM to 200 nM
Method: (§3) Mouse and human pre-adipocytes culture and differentiation. Inguinal fat pads from 4-8 week old C57BL/6J male and female mice were dissected and mechanically digested for 10 min using spring scissors. Digested tissues were incubated in WAT isolation buffer (10 ml PBS, 2.4 U/ml dispase II (#04942078001, Roche), 10 mg/ml collagenase D (#11088858001, Roche) at 37° C. for 45 min. 20 mL growth media was added and the tissue suspension was filtered through a 100-μm cell strainer and centrifuged at 600×g for 5 min. The cell pellets were resuspended in 20 mL growth media, filtered through a 40-μm cell strainer, centrifuged at 600×g for 5 min, resuspended in 10 mL growth media, and plated in 10-cm collagen-coated dishes. The cells were cultured in growth media (DMEM/F-12 Glutamax, Thermo Fisher Scientific #10565018) supplemented with 10% fetal bovine serum. Two days post-confluency, differentiation was induced with growth media containing 1 μM rosiglitazone, 0.5 mM isobutylmethylxanthine, 1 μM dexamethasone, 5 μg/mL insulin. After two days, cells were re-fed with growth media containing 1 μM rosiglitazone and 5 μg/mL insulin. Cells were fully differentiated after 6-8 days. For ISM1 knockdown or overexpression in primary adipocytes using adenovirus, 500 μL crude virus was mixed with 500 μL fresh growth media containing 1 μM rosiglitazone and 5 μg/mL insulin was added to each well at day 2 of differentiation. At day 4, virus-containing media was removed and 500 μL fresh growth media without stimulators was added to each well. SGBS cells were differentiated as described previously (Fischer-Posovszky et al., 2008; Wabitsch et al., 2001). Briefly, cells were cultured in growth media DMEM/F-12 Glutamax, supplemented with 10% fetal bovine serum, 33 uM biotin, and 17 uM pantothenate. Two days post confluency, differentiation was induced with serum-free DMEM/F12 media containing 33 uM biotin, 17 uM pantothenate, 0.01 mg/ml transferrin, 20 nM insulin, 100 nM cortisol, 0.2 nM triiodothyronine, 25 nM dexamethasone, 0.25 mM isobutyl methylxanthine, and 2 μM rosiglitazone. After four days, cells were re-fed with growth media containing 0.01 mg/ml transferrin 20 nM insulin, 100 nM cortisol, 0.2 nM triiodothyronine. Cells were fully differentiated after day 8-10.
as §2

SREBP1c, FAS, ACC = assay: Lipogenic protein and gene expression in AML12 hepatocytes; assay type: cell-based, mouse; conditions: 50 nM insulin, with or without ISM1; 24 h
Method: (§4) Gene expression analysis. Total RNA from cultured cells or tissues was isolated using TRIzol (Thermo Fischer Scientific) and Rneasy mini kits (QIAGEN). RNA was reverse transcribed using the ABI high capacity cDNA synthesis kit. For qRT-PCR analysis, cDNA, primers and SYBR-green fluorescent dye (ABI) were used. Relative mRNA expression was determined by normalization with Cyclophilin levels using the ΔΔCt method.
as §1

pAKT^S473 = assay: pAKT S473 signaling in 3T3-F442A cells (phosphokinase array, western blot); assay type: cell-based; conditions: increasing doses; 5 min
Method: as §1

[3] = system: pAKT^T308, S6^S235/S236, PRAS40^Thr246, ERK1/2, PKA, PDK1, GSK3β; assay: Time-course western blot of intracellular signaling pathways in 3T3-F442A cells; assay type: cell-based; conditions: 100 nM; time course
Method: as §1

srebp1c = assay: Lipogenic gene and SREBP-1c protein expression in primary adipocytes; assay type: cell-based, mouse; conditions: primary adipocytes
Method: as §4, §1

primary mouse adipocytes = assay: 2-deoxy-3H-glucose uptake in primary mouse adipocytes; assay type: cell-based; conditions: 1 h
Method: as §3, §2

In the case of CC(C)c1onc(-c2c(Cl)cccc2Cl)c1COc1ccc(/C=C/c2cccc(C(=O)O)c2)c(Cl)c1 [GW4064], the “hepatic steatosis (previously shown)” value (NAFLD mice) is listed as “significantly reduce hepatic steatosis”.

With insulin [reference compound] the de novo lipogenesis (AML12 hepatocytes) was “significant induction of lipogenesis”, the “tyrosine phosphorylation of proteins” value (pTyr) was “induces phosphorylation of its receptors at larger molecular weights” and the “induction of glucose uptake” value [1] was about 40 fold. For the same compound, the IGF-R/IR phosphorylation [2] was “induced IGF-R/IR phosphorylation”, the “GLUT4 in plasma membrane fraction (biochemical fractionation)” value (GLUT4; 4 h) was “translocation of GLUT4 to the plasma membrane” and the “GLUT4 at cell surface (immunostaining, confocal microscopy)” value (GLUT4; compared with control cells) was “higher levels of GLUT4 at cell surface”. For the same compound, the “concentration from which glucose uptake is increased” value (human SGBS adipocytes) was 20 nM, the “SREBP1c cleavage, FAS and ACC protein expression” value (SREBP1c, FAS, ACC) was “increased expression of pre-SREBP1c as well as the cleaved SREBP1, and increased protein expression of FAS and ACC” and the “dose at which dose-dependent increase in pAKT^S473 phosphorylation starts” value (pAKT^S473) was 10 nM. For the same compound, the “pAKT^T308 phosphorylation” value [3] was “phosphorylation at pAKT^T308 at all time points”, the “srebp1c expression under basal conditions” value (srebp1c) was “induces srebp1c expression” and the “glucose uptake induction compared with ISM1” value (primary mouse adipocytes) was “higher glucose induction than ISM1”.
